How the values were obtained:
CEM cells = assay: CEM cell assay, intrinsic toxicity of test compound without virus (MTT); format: cell-based; settings: 7 days, concentration reducing cellular viability by 50%
Experimental: (§1) The effectiveness of the compounds tested in Part A was also determined in a CEM cell assay. The HIV inhibition assay method of acutely infected cells is an automated tetrazolium based colorimetric assay essentially that reported by Pauwles et al, J. Virol. Methods 20, 309–321 (1988). Assays were performed in 96-well tissue culture plates. CEM cells, a CD4 cell line, were grown in RPMI-1640 medium (Gibco) supplemented with a 10% fetal calf serum and were then treated with polybrene ([…]). An 80 μL volume of medium containing 1×10^4 cells was dispensed into each well of the tissue culture plate. To each well was added a 100 μL volume of test compound dissolved in tissue culture medium (or medium without test compound as a control) to achieve the desired final concentration and the cells were incubated at 37° C. for 1 hour. A frozen culture of HIV-1 was diluted in culture medium to a concentration of 5×10^4 TCID50 per mL (TCID50=the dose of virus that infects 50% of cells in tissue culture), and a 20 μL volume of the virus sample (containing 1000 TCID50 of virus) was added to wells containing test compound and to wells containing only medium (infected control cells). Several wells received culture medium without virus (uninfected control cells). Likewise, the intrinsic toxicity of the test compound was determined by adding medium without virus to several wells containing test compound. In summary, the tissue culture plates contained the following experiments:
In experiments 2 and 4, the final concentrations of test compounds were 1, 10, 100 and 500 μg/mL. Either azidothymidine (AZT) or dideoxyinosine (ddI) was included as a positive drug control. […] DMSO was added to all control wells at an appropriate concentration.
Following the addition of virus, cells were incubated at 37° C. in a humidified, 5% CO2 atmosphere for 7 days. Test compounds could be added on days 0, 2 and 5 if desired. On day 7, post-infection, the cells in each well were resuspended and a 100 μL sample of each cell suspension was removed for assay. A 20μL volume of a 5 mg/mL solution of 3-(4,5-dimethylthiazol-2-yl)-2,5-diphenyltetrazolium bromide (MTT) was added to each 100 μL cell suspension, and the cells were incubated for 4 hours at […] in a 5% CO2 environment. […] To each sample was added […] of 10% sodium dodecylsulfate in 0.01 N HCl to lyse the cells, and samples were incubated overnight. The absorbance at 590 nm was determined for each sample using a Molecular Devices microplate reader. Absorbance values for each set of wells is compared to assess viral control infection, uninfected control cell response as well as test compound by cytotoxicity and antiviral efficacy.
The calculated EC50 (effective concentration 50%, i.e., the concentration at which the inhibitor compound reduces cytopathicity by 50%) and TD50 (toxic dose 50%, i.e., the concentration at which the inhibitor compound reduces cellular viability by 50%) values for these compounds are also shown in Table 1.

HIV protease = target: T1, HIV protease (Human immunodeficiency virus type 1 group M subtype B, UniProt P04585); assay: Enzyme assay (HIV protease, fluorogenic substrate 2-aminobenzoyl-Ile-Nle-Phe(p-NO2)-Gln-ArgNH2); format: biochemical; settings: HIV protease 12.3 nanomolar, substrate 80 μM, pH 6.4; read-out: Enzyme Inhibition (IC50)
T1 construct: HIV protease is diluted in the assay buffer to a final enzyme concentration of 12.3 nanomolar, based on a molecular weight of 10,780
Experimental: The calculated IC50 (inhibiting concentration 50%, i.e., the concentrations at which the inhibitor compound reduces enzyme activity by 50%) values are shown in Table 1. The enzyme method is described below. The substrate is 2-aminobenzoyl-Ile-Nle-Phe(p-NO2)-Gln-ArgNH2. The positive control is MVT-101 (Miller, M. et al, Science, 246, 1149 (1989)] The assay conditions are as follows:
Assay buffer: 20 mM sodium phosphate, pH 6.4
• 20% glycerol • 1 mM EDTA • 1 mM DTT • 0.1% CHAPS
The above described substrate is dissolved in DMSO, then diluted 10 fold in assay buffer. Final substrate concentration in the assay is 80 μM.
HIV protease is diluted in the assay buffer to a final enzyme concentration of 12.3 nanomolar, based on a molecular weight of 10,780.
The final concentration of DMSO is 14% and the final concentration of glycerol is 18%. The test compound is dissolved in DMSO and diluted in DMSO to 10× the test concentration; 10 μL of the enzyme preparation is added, the materials mixed and then the mixture is incubated at ambient temperature for 15 minutes. The enzyme reaction is initiated by the addition of 40 μL of substrate. The increase in fluorescence is monitored at 4 time points (0, 8, 16 and 24 minutes) at ambient temperature. Each assay is carried out in duplicate wells.

HIV-1 = assay: CEM cell assay, HIV inhibition in acutely infected cells (MTT); format: cell-based; settings: Human immunodeficiency virus 1, CCRF-CEM, 168 h; CEM cells acutely infected with HIV-1, 7 days; concentration reducing cytopathicity by 50%; read-out: Antiviral Activity in Cell Culture (EC50)
Experimental: as §1, with “A frozen culture of HIV-1 was diluted in culture medium to a concentration of 5×10^4 TCID50 per mL (TCID50=the dose of virus that infects 50% of cells in tissue culture), and a 20 μL volume of the virus sample (containing 1000 TCID50 of virus) was added to wells containing test compound and to wells containing only medium (infected control cells). Several wells received culture medium without virus (uninfected control cells).” left out, “In summary, the tissue culture plates contained the following experiments:” left out
Following the addition of virus, cells were incubated at 37° C. in a humidified, 5% CO2 atmosphere for 7 days. […] The absorbance at 590 nm was determined for each sample using a Molecular Devices microplate reader. Absorbance values for each set of wells is compared to assess viral control infection, uninfected control cell response as well as test compound by cytotoxicity and antiviral efficacy. […]

| SMILES | Cell Toxicity (TD50) (CEM cells) | IC50 (HIV protease) [nM] | EC50 (HIV-1) [nM] |
| --- | --- | --- | --- |
| C[C@H](CS(C)(=O)=O)C(=O)N[C@@H](Cc1ccccc1)[C@H](O)CN1C[C@H]2CCCC[C@H]2C[C@H]1C(=O)NC(C)(C)C | 58,000 nM | – | – |
| COc1ccc(COC(=O)NC[C@@H](C)C(=O)N[C@@H](Cc2ccccc2)[C@H](O)CN2C[C@H]3CCCC[C@H]3C[C@H]2C(=O)NC(C)(C)C)cc1 | 2,000 nM | – | – |
| CC(C)(C)NC(=O)[C@@H]1C[C@@H]2CCCC[C@@H]2CN1C[C@@H](O)[C@H](Cc1ccccc1)NC(=O)C[C@H](NC(=O)c1ccc2ccccc2n1)C(N)=O | 5,000 nM | – | – |
| C[C@@H](C(=O)N[C@@H](Cc1ccccc1)[C@H](O)CN1C[C@H]2CCCC[C@H]2C[C@H]1C(=O)NC(C)(C)C)C(C)(C)C(N)=O | 59,000 nM | 9 | 98 |
| C[C@@H](C(=O)N[C@@H](Cc1ccccc1)[C@H](O)CN1C[C@H]2CCCC[C@H]2C[C@H]1C(=O)NC(C)(C)C)C(C)(C)C(=O)O | 50,000 nM | – | – |

Source: patent US7026333B1, “Retroviral protease inhibitors” (G. D. Searle & Co., priority 1999, dated 2006)
